According to patent US20240058292A1, “PHARMACEUTICAL COMPOSITION FOR TREATING CANCER, AND PREPARATION METHOD AND USE THEREOF” (priority 2020, published 2024):

How the values were obtained:
[1] = system: Human brain astroblastoma cell line U-87MG; assay: Tumor-suppressing effect on subcutaneously transplanted U-87MG tumors in nude mice (tumor weight, IRTW); assay type: in vivo, BALB/C-nu/nu mice; conditions: intraperitoneal injection; for Tumor-suppressing rate (%): IRTW vs model group; for Tumor weight: U-87MG tumor, end of experiment, mean±SD
Method: 4. Laboratory animals • Animal species: BALB/C-nu/nu mice • Animal grade: SPF grade • Gender and quantity:42 females • Animal age at the start of an experiment: 6 weeks old • Animal body weight at the start of an experiment: 18±2 g • Animal source: Vital River Laboratory Animal Technology Co., Ltd.
Cell source and cultivation conditions: Human brain astroblastoma cell line U-87MG: which came from the Cell Resource Center of the Shanghai Institutes for Biological Sciences (SIBS); medium: MEM medium including 1% penicillin-streptomycin sulfate mixed solution (100 ×) and 10% fetal bovine serum (FBS) (from Australia); cultivation conditions: 5% CO2 and 37° C.; and the cell line was frozen by Marine Biomedical Research Institute of Qingdao.
The cell line U-87MG stored in liquid nitrogen was recovered, inoculated in a corresponding medium including 10% FBS, 100 U/mL penicillin, and 100 […] streptomycin, and cultivated in the cell culture incubator at 37° C. and 5% CO2. The cells were passaged every two days.
After the cells were passaged four times, resulting cells were collected through digestion with 0.05% trypsin-EDTA, counted under a microscope, and resuspended with a medium to obtain a cell suspension with 5×10^7 cells/mL; a mouse was routinely disinfected, and 0.2 mL of the cell suspension was subcutaneously inoculated in an axillary region of a right forelimb of the mouse; and a resulting tumor tissue was aseptically taken out, weighed, diluted with a sodium chloride injection according to a mass-to-volume ratio of 1:4, and then ground, then a mouse was routinely disinfected, and 0.2 mL of a resulting suspension was subcutaneously inoculated in an axillary region of a right forelimb of the mouse for passage, where the passage was continuously conducted twice. During this period, the mice were raised normally, and the states and tumor growth conditions of the mice were observed and recorded every week.
When a tumor volume in a tumor-bearing mouse to be passaged was about 1,200 mm 3, a tumor was ground and transplanted by a same method for molding. After the tumor inoculation was completed, a body weight of a mouse was measured, and mice were randomly selected and divided into 6 groups with 7 mice per group. After tumor colonization, the administration was started, which was recorded as Day 1 (D1). […]
After the experiment was completed, tumor tissues of animals that died unexpectedly and surviving animals that were euthanized each were peeled off and weighed, and a tumor weight difference of each group was calculated to further calculate a tumor-suppressing rate (IRTW) according to the following formula: […]
It was required in this scheme that measured and observed data results were manually recorded in appropriate forms or directly acquired by a computer. […]

[2] = General clinical observation and body weight of tumor-bearing mice during administration; conditions: mouse, in vivo
Method: According to body weights, animals were randomly divided into 6 groups, with 7 animals per group.
Observed animals: All animals
Observation frequency and time: The animals were observed once before each time of administration during the experiment, and administration and observation results were recorded.
Observation content: including, but not limited to, tumor growth, animal mental states, eating and drinking conditions, or the like.
Detected animals: All animals
Detection time: A body weight of an animal was measured and recorded when grouping (namely, before the first administration) (D1), before each subsequent administration, and before euthanasia.
A body weight and relevant information of an animal were measured and recorded if the animal died unexpectedly.

[3] = 5-Fluorouracil 18 mg/kg, twice a week

Compound: Cn1nnc2c(C(N)=O)ncn2c1=O [TMZ, temozolomide]
- Tumor-suppressing rate (%) ([1]; TMZ 25 mg/kg, once every day): 99.5%
- Tumor weight ([1]; TMZ 25 mg/kg, once every day): 0.0134 ± 0.0091

Compound: O=c1[nH]cc(F)c(=O)[nH]1 [5-Fluorouracil]
- Tumor-suppressing rate (%) [1, 3]: 52.7%
- Tumor weight [1, 3]: 1.3305 ± 0.6525
- Body weight of mice during administration [2]: reduced at a late stage of administration
